Assay [1] addresses T1, TcFPPS (Trypanosoma cruzi farnesyl diphosphate synthase) (Trypanosoma cruzi, UniProt Q8WS26).
T1 sequence (Q8WS26 64-425): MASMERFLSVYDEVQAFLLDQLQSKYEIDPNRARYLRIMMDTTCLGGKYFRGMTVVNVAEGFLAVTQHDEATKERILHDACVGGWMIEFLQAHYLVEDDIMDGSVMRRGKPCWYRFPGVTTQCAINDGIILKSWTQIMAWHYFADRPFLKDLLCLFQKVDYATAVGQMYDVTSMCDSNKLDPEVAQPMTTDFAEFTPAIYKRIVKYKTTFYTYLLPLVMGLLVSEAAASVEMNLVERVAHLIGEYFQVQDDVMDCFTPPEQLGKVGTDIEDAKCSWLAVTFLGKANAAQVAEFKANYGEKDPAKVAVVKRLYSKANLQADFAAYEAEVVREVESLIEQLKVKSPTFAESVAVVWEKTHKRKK
Put plainly: Isothermal titration calorimetry of bisphosphonate binding to TcFPPS. The following applies: ITC, 28 °C; for ΔG / ΔH / ΔS: single binding site per monomer. Background: ITC needs no label: the signal is the heat of the interaction.

A further assay deals with TcFPPS. The following applies: TcFPPS enzymatic activity; IC50 were calculated before; cited from earlier work.
The test system of another assay is T. cruzi. The following applies: in vivo assays; cited from earlier work.

For orientation: IC50 means the midpoint of a concentration-inhibition curve. In assay [1], `CCCCCCCNCC(P(=O)(O)O)P(=O)(O)O` [Compound 13, [2-(n-heptylamino)ethane-1,1-diyl]bisphosphonic acid] showed a ΔG of -9.88 kcal/mol, a ΔH of 5.65 ± 0.09 kcal/mol and a ΔS of 51.9 cal/mol/K. In assay [1] (values calculated using 2-site model (two different sites per dimer), first site), the “ΔH, 2-site model, first value” was 6.39 ± 0.36 kcal/mol. In addition, in assay [1] (values calculated using 2-site model (two different sites per dimer), second site), the “ΔH, 2-site model, second value” was 4.62 ± 0.44 kcal/mol. For the same compound, the IC50 in the assay with TcFPPS was 58 nM.
`CCCCCNCC(P(=O)(O)O)P(=O)(O)O` [Compound 11, [2-(n-pentylamino)ethane-1,1-diyl]bisphosphonic acid]: in assay [1], the ΔG was -8.15 kcal/mol, the ΔH was 5.22 ± 0.11 kcal/mol and the ΔS turned out to be 44.7 cal/mol/K. In the assay on TcFPPS, the IC50 is 1840 nM.
As to `CCCCCCNCC(P(=O)(O)O)P(=O)(O)O` [Compound 12, [2-(n-hexylamino)ethane-1,1-diyl]bisphosphonic acid], in assay [1], the ΔG is -8.72 kcal/mol, the ΔH came out at 7.87 ± 0.11 kcal/mol and the ΔS turned out to be 55.4 cal/mol/K. Moreover, the “unfavorable binding enthalpy, excess over the other inhibitors” value in assay [1] (compared with the other n-alkyl inhibitors) fell in the range of 1.5 to 2.0 kcal/mol. In the assay with TcFPPS, the 50% inhibitory concentration (IC50) was 490 nM.
As to `O=P(O)(O)C(O)(Cc1cccnc1)P(=O)(O)O` [risedronate], the “survival of T. cruzi-infected mice” value in the assay with T. cruzi is “significantly increase survival”.
In assay [1], `CCCNCC(P(=O)(O)O)P(=O)(O)O` [Compound 10, [2-(n-propylamino)ethane-1,1-diyl]bisphosphonic acid] yielded a ΔG of -10.43 kcal/mol, a ΔH of 6.35 ± 0.07 kcal/mol and a ΔS of 56.1 cal/mol/K. Further, the IC50 in the assay with TcFPPS is 38 nM.
Consider `O=P(O)(O)C(CNC1CCCCC1)P(=O)(O)O` [Compound 14, [2-(cyclohexylamino)ethane-1,1-diyl]bisphosphonic acid], for which, in the assay on TcFPPS, the IC50 was 13 nM.

These data come from article PMC4710095 (Journal of medicinal chemistry, 2012).
